Test results taken from US9980927B2, “Use of tapentadol for inhibiting and/or treating depression and anxiety” (Gruenenthal GmbH, priority 2011, dated 2018).

Test system: patients with inadequately managed, severe chronic low back pain with or without a neuropathic pain component
Experiment: Short Form 36 Health Survey (SF-36) scores, same trial
Assay type: in vivo, human patients
Details: Baseline to Week 12, all P<0.05
Description: This was a multicenter, multinational, open-label, effectiveness phase IIIb trial to evaluate effectiveness and safety of tapentadol prolonged release treatment in patients with inadequately managed, severe chronic low back pain with or without a neuropathic pain component. Patients taking WHO Step II analgesics discontinued those analgesics before starting study medication; patients taking Step I analgesics and/or centrally acting co-analgesics continued on the same dose. […] All patients received tapentadol prolonged release (50-250 mg bid) for up to 12 weeks (5-week titration period and a 7-week maintenance period). Tapentadol immediate release (IR) 50 mg (twice a day, hours apart) was permitted (combined total daily dose of tapentadol prolonged release and tapentadol IR, 500 mg/day). The primary efficacy endpoint was the change from Baseline to Week 6 (when tapentadol prolonged release doses were stable) in average pain intensity on the 11-point NRS-3 using the last observation carried forward (LOCF) for imputing missing scores. […]
All subjects completed Short Form-36 (SF-36) and EuroQol-5 Dimension (EQ-5D) questionnaires and the Hospital Anxiety and Depression Scale (HADS). […] Adverse events were recorded throughout the trial.

CC[C@@H](c1cccc(O)c1)[C@@H](C)CN(C)C [tapentadol, (−)-(1R,2R)-3-(3-dimethylamino-1-ethyl-2-methyl-propyl)-phenol]
SF-36 physical functioning, bodily pain, general health, role-emotional and physical component summary scores (patients painDETECT negative or unclear/positive): improved | SF-36 role-physical, vitality, social functioning, mental health, reported health transition and mental component summary scores (patients painDETECT unclear/positive): also improved
